Tested on: MeV-Alaska
Test: Antiviral activity of compound analogs against MeV-Alaska (tables 1-5)
Assay type: cell-based, measles virus
Settings: Measles morbillivirus; Table 5

EC50 [nM]	Compound
1050	COc1ccc(-n2c(SCC(=O)Nc3ccc(C)cc3Cl)nc3ccccc32)cc1 [Compound 140]
2100	Cc1ccc(NC(=O)C(C)Sc2nc3cc(C)c(C)cc3n2Cc2ccc(F)cc2)c(Cl)c1 (centres unmarked) [Compound 129]
> 75000	CCOC(=O)c1ccc2[nH]c(SC(C)C(=O)Nc3ncc(Cl)cc3Cl)nc2c1 (centres unmarked) [Compound 158]
> 75000	Cc1ccc(NC(=O)CSc2nc3cc(C)c(C)cc3n2Cc2ccc(F)cc2)c(Cl)c1 [Compound 144]
> 75000	C#CCn1c(SC(C)C(=O)Nc2ccc(C)cc2Cl)nc(-c2ccccc2)c1-c1ccccc1 (centres unmarked) [Compound 153]
> 75000	COc1ccc(Cn2c(NC(C)C(=O)Nc3ccc(C)cc3Cl)nc3ccccc32)cc1 (centres unmarked) [Compound 127]
> 75000	COc1ccc(Cn2c(CC(C)NC(=O)c3ccc(Cl)cc3Cl)nc3ccccc32)cc1 (centres unmarked) [Compound 136]
> 75000	Cc1ccc(NC(=O)C(C)Sc2nc3ccccc3o2)c(Cl)c1 (centres unmarked) [Compound 151]
> 75000	Cc1ccc(NC(=O)C(C)Sc2nc3ccccc3s2)c(Cl)c1 (centres unmarked) [Compound 130]
> 150000	COc1ccc(-n2c(S(=O)(=O)C(C)C(=O)Nc3ccc(C)cc3Cl)nc3ccccc32)cc1 (centres unmarked) [Compound 150]
> 9300	Cc1ccc(NC(=O)C(C)Sc2cc3ccccc3n2-c2ccccc2)c(Cl)c1 (centres unmarked) [Compound 173]
> 75000	Cc1ccc(NC(=O)C(C)Sc2nc(-c3ccccc3)c(-c3ccccc3)[nH]2)c(Cl)c1 (centres unmarked) [Compound 152]
> 75000	CCOC(=O)c1ccc2[nH]c(SC(C)C(=O)Nc3ncc(C)cc3Cl)nc2c1 (centres unmarked) [Compound 164]
> 75000	Cc1ccc(NC(=O)C(C)(C)Sc2nc3ccccc3n2-c2ccccc2)c(Cl)c1 [Compound 170]
4200	COc1ccc(-n2c([S+]([O-])CC(=O)Nc3ccc(C)cc3Cl)nc3ccccc32)cc1 (centres unmarked) [Compound 165]
> 75000	Cc1ccc(-n2c(SC(C)(C)C(=O)Nc3ccc(C)cc3Cl)nc3ccccc32)cc1 [Compound 145]
> 75000	Cc1ccc(N(Cc2ccc(F)cc2)C(=O)CSc2nc(-c3ccccc3)c(-c3ccccc3)n2Cc2ccc(F)cc2)c(Cl)c1 [Compound 143]
> 75000	COc1ccc(-n2c(S(=O)(=O)C(C)C(=O)Nc3ccccc3)nc3ccccc32)cc1 (centres unmarked) [Compound 139]

Compound	EC50 [nM]
Cc1ccc(NC(=O)C(C)Sc2nc3ccccc3n2Cc2ccccc2)c(Cl)c1 (centres unmarked) [Compound 148]	> 75000

Same assay, conditions: Table 1

Compound	EC50 [nM]
COc1ccc(-n2c(SC(C)C(=O)Nc3nnc(C)c(C)n3)nc3ccccc32)cc1 (centres unmarked) [Compound 6]	16600
COc1ccc(-n2c(SC(C)C(=O)Nc3ncc(C)s3)nc3ccccc32)cc1 (centres unmarked) [Compound 53]	> 150000
COc1ccc(-n2c(SC(C)C(=O)Nc3ccc(C)cc3C)nc3ccccc32)cc1 (centres unmarked) [Compound 45]	1100
COc1ccc(-n2c(SC(C)C(=O)Nc3ncc(C)cc3Cl)nc3ccccc32)cc1 (centres unmarked) [Compound 5]	40
COc1ccc(-n2c(SC(C)C(=O)Nc3ccc(C)cc3F)nc3ccccc32)cc1 (centres unmarked) [Compound 31]	200
COc1ccc(-n2c(SC(C)C(=O)Nc3ccccc3C)nc3ccccc32)cc1 (centres unmarked) [Compound 15]	1140
COc1ccc(-n2c(SC(C)C(=O)Nc3nccs3)nc3ccccc32)cc1 (centres unmarked) [Compound 36]	4000
COc1ccc(-n2c(SC(C)C(=O)Nc3nc(C)cs3)nc3ccccc32)cc1 (centres unmarked) [Compound 35]	3600
COc1ccc(-n2c(SC(C)C(=O)Nc3nc(C)nc(C)c3Cl)nc3ccccc32)cc1 (centres unmarked) [Compound 30]	> 75000
COc1ccc(-n2c(SC(C)C(=O)Nc3nc(Cl)cc(OC)n3)nc3ccccc32)cc1 (centres unmarked) [Compound 27]	> 75000
COc1ccc(-n2c(SC(C)C(=O)Nc3nc(C)c(Br)cc3Br)nc3ccccc32)cc1 (centres unmarked) [Compound 41]	500
COc1ccc(-n2c(SC(C)C(=O)Nc3ccc(Cl)cc3C)nc3ccccc32)cc1 (centres unmarked) [Compound 20]	1400
COc1ccc(-n2c(SC(C)C(=O)Nc3ccc(Cl)c(Cl)c3)nc3ccccc32)cc1 (centres unmarked) [Compound 48]	7300
COc1ccc(-n2c(SC(C)C(=O)Nc3cccc(C)c3)nc3ccccc32)cc1 (centres unmarked) [Compound 10]	300
COc1ccc(-n2c(SC(C)C(=O)Nc3ccc(N)cc3C)nc3ccccc32)cc1 (centres unmarked) [Compound 52]	> 9300
COc1ccc(-n2c(SC(C)C(=O)Nc3ccc(C)c(N)c3)nc3ccccc32)cc1 (centres unmarked) [Compound 16]	2300
COc1ccc(-n2c(SC(C)C(=O)Nc3ccc([N+](=O)[O-])cc3C)nc3ccccc32)cc1 (centres unmarked) [Compound 32]	> 9300
COc1ccc(-n2c(SC(C)C(=O)Nc3nc(C)cc(Cl)n3)nc3ccccc32)cc1 (centres unmarked) [Compound 7]	> 150000
COc1ccc(-n2c(SC(C)C(=O)Nc3ccccc3)nc3ccccc32)cc1 (centres unmarked) [Compound 25]	900

Same assay, conditions: Table 2

Compound	EC50 [nM]
Cc1ccc(NC(=O)C(C)Sc2nc3ccccc3n2-c2cccc(C(=O)O)c2)c(Cl)c1 (centres unmarked) [Compound 82]	> 75000
Cc1ccc(NC(=O)C(C)Sc2nc3ccccc3n2-c2cccc(CN3CCOCC3)c2)c(Cl)c1 (centres unmarked) [Compound 83]	270
Cc1ccc(NC(=O)C(C)Sc2nc3ccccc3n2-c2ccc(N)cc2)c(Cl)c1 (centres unmarked) [Compound 78]	1330
Cc1ccc(NC(=O)C(C)Sc2nc3ccccc3n2-c2ccc(N=[N+]=[N-])cc2)c(Cl)c1 (centres unmarked) [Compound 95]	310
Cc1ccc(NC(=O)C(C)Sc2nc3ccccc3n2-c2cccc(CO)c2)c(Cl)c1 (centres unmarked) [Compound 80]	700
Cc1ccc(NC(=O)C(C)Sc2nc3ccccc3n2Cc2ccccc2)c(Cl)c1 (centres unmarked) [Compound 74]	500
Cc1ccc(NC(=O)C(C)Sc2nc3ccccc3n2C2CCNCC2)c(Cl)c1 (centres unmarked) [Compound 92]	> 75000
Cc1ccc(NC(=O)C(C)Sc2nc3ccccc3n2-c2ccc(C(=O)O)cc2)c(Cl)c1 (centres unmarked) [Compound 97]	> 75000
COc1cccc(-n2c(SC(C)C(=O)Nc3ccc(C)cc3Cl)nc3ccccc32)c1 (centres unmarked) [Compound 71]	600
COc1ccc(Cn2c(SC(C)C(=O)Nc3ccc(C)cc3Cl)nc3ccccc32)cc1 (centres unmarked) [Compound 85]	400
COc1cc(OC)cc(-n2c(SC(C)C(=O)Nc3ccc(C)cc3Cl)nc3ccccc32)c1 (centres unmarked) [Compound 87]	400
Cc1ccc(NC(=O)C(C)Sc2nc3ccccc3n2-c2ccc(OCCO)cc2)c(Cl)c1 (centres unmarked) [Compound 58]	4600
Cc1ccc(NC(=O)C(C)Sc2nc3ccccc3n2-c2ccc(OCC#N)cc2)c(Cl)c1 (centres unmarked) [Compound 57]	700
Cc1ccc(NC(=O)C(C)Sc2nc3ccccc3n2-c2ccc(O)cc2)c(Cl)c1 (centres unmarked) [Compound 76]	3800

Same assay, conditions: Table 3

Compound	EC50 [nM]
CC(Sc1nc2ccccc2n1C)C(=O)Nc1ncc(Cl)cc1Cl (centres unmarked) [Compound 113]	> 10000
Cc1cnc(NC(=O)C(C)Sc2nc3ccccc3n2-c2ccccc2)c(Cl)c1 (centres unmarked) [Compound 109]	130
CC(Sc1nc2ccccc2n1-c1ccc(O)cc1)C(=O)Nc1ncc(Cl)cc1Cl (centres unmarked) [Compound 103]	7700
Cc1cnc(NC(=O)C(C)Sc2nc3ccccc3n2-c2ccc(F)cc2)c(Cl)c1 (centres unmarked) [Compound 116]	800
Cc1cccc(-n2c(SC(C)C(=O)Nc3ncc(C)cc3Cl)nc3ccccc32)c1 (centres unmarked) [Compound 119]	90
CCOc1ccc(-n2c(SC(C)C(=O)Nc3cc(C)cc(C)n3)nc3ccccc32)cc1 (centres unmarked) [Compound 115]	1500
COc1ccc(Cn2c(SC(C)C(=O)Nc3ncc(C)cc3Cl)nc3ccccc32)cc1 (centres unmarked) [Compound 107]	800

Reference: patent US9365523B2, “Imidazolyl amide compounds and uses related thereto” (priority 2011, dated 2016)
